Assay results: patent publication US20260285850A1, “SUBSTITUTED OXAZOLIDINONES AND IMIDAZOLINONES AS HERBICIDES” (FMC CORPORATION, priority 2023, published 2026)

How the values were obtained:
Type in all cases: in vivo
[1] = test system: barnyardgrass (Echinochloa crus-galli); assay: Test A preemergence soil spray, visual injury rating 0-100; details: 10 days
Summary of the method: (§1)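 Visual injury, scored 0-100 (100 = complete control) against untreated plants, 10 days after greenhouse treatment. Test chemicals in surfactant-containing non-phytotoxic solvent were applied in loam soil and sand, as a preemergence soil spray on seeds or postemergence to plants at the one- to two-leaf stage.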

[2] = test system: ragweed (common ragweed, Ambrosia artemisiifolia); assay: as above; details: 10 days
Summary of the method: as §1

[3] = test system: palmer (palmer amaranth, palmer pigweed, Amaranthus palmeri); assay: as above; details: 10 days
Summary of the method: as §1

[4] = test system: green foxtail (Setaria viridis); assay: as above; details: 10 days
Summary of the method: as §1

kochia (Bassia scoparia) [5] = assay: as above; details: 10 days
Summary of the method: as §1

corn (Zea mays) [6] = assay: as above; details: 10 days
Summary of the method: as §1

[7] = test system: wheat (Triticum aestivum); assay: as above; details: 10 days
Summary of the method: as §1

soybean (Glycine max) [8] = assay: as above; details: 10 days
Summary of the method: as §1

[9] = test system: ryegrass, Italian (italian ryegrass, Lolium multiflorum); assay: as above; details: 10 days
Summary of the method: as §1

[10] = test system: blackgrass (Alopecurus myosuroides); assay: as above; details: 10 days
Summary of the method: as §1

[11] = test system: oat, wild (wild oat, Avena fatua); assay: as above; details: 10 days
Summary of the method: as §1

[12] = test system: ducksalad (Heteranthera limosa); assay: Test B flooded paddy test, visual plant response rating 0-100; details: 250 g ai/ha, Flood, applied to paddy water, evaluated after 13 days
Summary of the method: (§2)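 In this flooded assay, 2-leaf seedlings received compound through the water layer, kept at 3 cm over the soil. Plants were held 13 days in a greenhouse and then visually compared with control pots.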

[13] = test system: barnyardgrass (Echinochloa crusgalli); assay: as above; details: 250 g ai/ha, Flood, applied to paddy water, evaluated after 13 days
Summary of the method: as §2

[14] = test system: sedge, umbrella (small-flower umbrella sedge, Cyperus difformis); assay: as above; details: 250 g ai/ha, Flood, applied to paddy water, evaluated after 13 days
Summary of the method: as §2

rice (Oryza sativa) = assay: as above; details: 250 g ai/ha, Flood, applied to paddy water, evaluated after 13 days
Summary of the method: as §2

[15] = test system: horseweed (Erigeron canadensis); assay: Test A postemergence application, visual injury rating 0-100
Summary of the method: as §1

[16] = test system: barnyardgrass (Echinochloa crus-galli); assay: as above
Summary of the method: as §1

[17] = test system: ragweed (common ragweed, Ambrosia artemisiifolia); assay: as above
Summary of the method: as §1

[18] = test system: palmer (palmer amaranth, palmer pigweed, Amaranthus palmeri); assay: as above
Summary of the method: as §1

[19] = test system: green foxtail (Setaria viridis); assay: as above
Summary of the method: as §1

kochia (Bassia scoparia) [20] = assay: as above
Summary of the method: as §1

corn (Zea mays) [21] = assay: as above
Summary of the method: as §1

[22] = test system: wheat (Triticum aestivum); assay: as above
Summary of the method: as §1

soybean (Glycine max) [23] = assay: as above
Summary of the method: as §1

[24] = test system: ryegrass, Italian (italian ryegrass, Lolium multiflorum); assay: as above
Summary of the method: as §1

[25] = test system: blackgrass (Alopecurus myosuroides); assay: as above
Summary of the method: as §1

[26] = test system: oat, wild (wild oat, Avena fatua); assay: as above
Summary of the method: as §1

[27] = test system: galium (catchweed bedstraw, Galium aparine); assay: as above
Summary of the method: as §1

[28] = 62 g ai/ha, 0 = no effect, 100 = complete control
[29] = 62 g ai/ha, postemergence, 10 days, 0 = no effect, 100 = complete control
[30] = Postemergence, 16 g ai/ha, greenhouse 10 days, 0 no effect, 100 complete control

CC(C)COC(=O)C1=CCC(NC(=O)C2(C)CN(c3cc(F)cc(Cl)c3)C(=O)O2)C1 (stereo not shown) [Compound 143]
60: Plant response rating, Ducksalad (0 to 100 scale, 0 is no effect and 100 is complete control) [12]
45: Plant response rating, Sedge, Umbrella (0 to 100 scale, 0 is no effect and 100 is complete control) [14]
40: Plant response rating, Barnyardgrass (0 to 100 scale, 0 is no effect and 100 is complete control) [13]
0: Barnyardgrass plant response rating ([1]; 16 g ai/ha, 0 to 100 scale) | Barnyardgrass plant response rating (0-100) [1, 28] | Ragweed plant response rating ([2]; 16 g ai/ha, 0 to 100 scale) | Ragweed plant response rating (0-100) [2, 28] | Pigweed, Palmer plant response rating ([3]; 16 g ai/ha, 0 to 100 scale) | Pigweed, Palmer plant response rating (0-100) [3, 28] | Foxtail, Green plant response rating ([4]; 16 g ai/ha, 0 to 100 scale) | Foxtail, Green plant response rating (0-100) [4, 28] | Kochia plant response rating (kochia (Bassia scoparia) [5]; 16 g ai/ha, 0 to 100 scale) | Kochia plant response rating (0-100) (kochia (Bassia scoparia) [5]; [28]) | Corn plant response rating (corn (Zea mays) [6]; 16 g ai/ha, 0 to 100 scale) | Corn plant response rating (0-100) (corn (Zea mays) [6]; [28]) | Wheat plant response rating ([7]; 16 g ai/ha, 0 to 100 scale) | Wheat plant response rating (0-100) [7, 28] | Soybean plant response rating (soybean (Glycine max) [8]; 16 g ai/ha, 0 to 100 scale) | Soybean plant response rating (0-100) (soybean (Glycine max) [8]; [28]) | Ryegrass, Italian plant response rating ([9]; 16 g ai/ha, 0 to 100 scale) | Ryegrass, Italian plant response rating (0-100) [9, 28] | Blackgrass plant response rating ([10]; 16 g ai/ha, 0 to 100 scale) | Blackgrass plant response rating (0-100) [10, 28] | Oat, Wild plant response rating ([11]; 16 g ai/ha, 0 to 100 scale) | Oat, Wild plant response rating (0-100) [11, 28] | Horseweed plant response rating (0-100) [15, 29] | Horseweed plant response rating (0 to 100 scale) [15, 30] | Barnyardgrass plant response rating (0-100) [16, 29] | Barnyardgrass plant response rating (0 to 100 scale) [16, 30] | Ragweed plant response rating (0-100) [17, 29] | Ragweed plant response rating (0 to 100 scale) [17, 30] | Pigweed, Palmer plant response rating (0-100) [18, 29] | Pigweed, Palmer plant response rating (0 to 100 scale) [18, 30] | Foxtail, Green plant response rating (0-100) [19, 29] | Foxtail, Green plant response rating (0 to 100 scale) [19, 30] | Kochia plant response rating (0-100) (kochia (Bassia scoparia) [20]; [29]) | Kochia plant response rating (0 to 100 scale) (kochia (Bassia scoparia) [20]; [30]) | Corn plant response rating (0-100) (corn (Zea mays) [21]; [29]) | Corn plant response rating (0 to 100 scale) (corn (Zea mays) [21]; [30]) | Wheat plant response rating (0-100) [22, 29] | Wheat plant response rating (0 to 100 scale) [22, 30] | Soybean plant response rating (0-100) (soybean (Glycine max) [23]; [29]) | Soybean plant response rating (0 to 100 scale) (soybean (Glycine max) [23]; [30]) | Ryegrass, Italian plant response rating (0-100) [24, 29] | Ryegrass, Italian plant response rating (0 to 100 scale) [24, 30] | Blackgrass plant response rating (0-100) [25, 29] | Blackgrass plant response rating (0 to 100 scale) [25, 30] | Oat, Wild plant response rating (0-100) [26, 29] | Oat, Wild plant response rating (0 to 100 scale) [26, 30] | Galium plant response rating (0-100) [27, 29] | Galium plant response rating (0 to 100 scale) [27, 30]
10: Plant response rating, Rice (0 to 100 scale, 0 is no effect and 100 is complete control) (rice (Oryza sativa))
